Each structure is given as a SMILES string.

The subject of the assay is MG-63 cells. Nature of the assay: Ganciclovir cytotoxicity/bystander effects in HStk vector transduced MG-63 cells. It is filed as cell-based, human. The following applies: GCV 20 μg/ml, 10 days. The procedure: Initial dose-response studies determined the sensitivity of MG-63 cells and the optimal concentrations of G418 used to select transduced cells. Upon G418 selection, varying proportions of HStk-transduced and non-transduced MG-63 cells (plating density 2.5×10^4 cells) were exposed to 20 μg GCV/ml D10 in each of six-well plates, for 10 days. […] Bystander effects of GCV treatment were compared to those in HStk-transduced NIH 3T3 cells (ATCC No. CRL 1658).

Regarding `Nc1nc(O)c2ncn(COC(CO)CO)c2n1` [GCV, ganciclovir], the degree of confluency by setting is: (10% HStk+/90% HStk− MG-63 cells) 15%; (30% HStk+/70% HStk− MG-63 cells) 15%; (50% HStk+/50% HStk− MG-63 cells) 10%; (100% HStk− (non-transduced) MG-63 cells) 75%; (greater than 50% HStk+ MG-63 cells) less than 10%.

These data come from patent US7605142B2, “Expression of cyclin G1 in tumors” (University of Southern California, priority 1995, dated 2009).
